Values quoted from earlier work in patent publication US10702472B2, “Production method of edible sustained-release functional material and edible sustained-release functional material” (AOBAKASEI KABUSHIKI KAISHA, priority 2017, dated 2020).

Conditions: generally known value

For `O=C[C@H](O)[C@@H](O)[C@H](O)[C@H](O)CO` [glucose], the collapse temperature is listed as −40 °C.
